Measurements: PubChem BioAssay AID743336 (Broad Institute, 2014)
Inconclusive results are not listed.

System: C2C12 myotubes + simvastatin, ATP luminescence, 48 h
Test: rescue of simvastatin myotoxicity in C2C12 – cell-based, differentiated C2C12, luminescence, dry powder, dose response (AID 743336)

| Compound | AC40 |
| --- | --- |
| Cc1noc(C)c1S(=O)(=O)Nc1ccc2c(c1)CC(=O)N([C@H](C)CO)C[C@H](C)[C@@H](CN(C)Cc1ccc(C(F)(F)F)cc1)O2 | 16 µM |
| N#C[C@@H]1[C@@H](c2ccccc2)[C@H](CO)N1S(=O)(=O)c1ccc(-c2ccccc2)cc1 | 10.6 µM |
